Source: patent US20220211858A1, “TUBULAR SUPRAMOLECULAR POLYMERS” (priority 2019, published 2022)
Read-outs that look alike come from different tables or passages of the source.

Key:
[1] = Biodistribution study in U87 MG tumor-bearing mice; format: in vivo, nude mice; conditions: nude, mouse, in vivo, 4.5 mg/kg, 4.5 mg/kg i.v., 1 hour after injection
Description: Mice bearing subcutaneous tumors were established by injecting 100 μL of a U87 MG suspension in serum-free medium (2×10^6 cells) into the right flank of the mice. When the tumor reached a size of −200 mm^3, the mice were randomly grouped and received one of the following 3 treatments via intravenous injection (n=18 for each group): free CPT (4.5 mg/kg), TT 1 (4.5 mg/kg), and TT 1 (15 mg/kg). Three mice from each group were euthanized at pre-determined time points (1, 2, 4, 8, 12, and 24 h). Plasma, major organs, and tumors were collected and stored at −80° C. for further analysis. To determine the amount of free CPT and TT 1 in the samples, 100 mg tumors were mixed with 900 μL acetonitrile (containing 0.1% TFA) and then homogenized using Precellys Evolution Super Homogenizer (Bertin Technologies, France) for 3×40 s (5,600 shakes/min). The resulting suspensions were centrifuged and the supernatants were collected. For plasma, 50 μL of sample was mixed with 450 μL acetonitrile (containing 0.1% TFA) and sonicated for 1 min. The supernatants were collected using centrifugation. All samples were filtered through a 0.22 μm membrane before analysis by a UPLC system (Waters ACQuity™ Ultra Performance LC) equipped with a reverse-phase column (ACQuity UPLC@BEH, C18, 1.7 μm 2.1×150 mm) and a fluorescence detector (ACQuity FLR, Ex/Em=362/430 nm). The column was flushed with a mixture of water (0.1% TFA) and acetonitrile (0.1% TFA) at 0.3 mL/min with the following gradient: 5% acetonitrile (0-1 min), 5-95% acetonitrile (1-5 min), 95% acetonitrile (5-8 min), 95-5% acetonitrile (8-9 min), and 5% acetonitrile (9-10 min). Peaks with retention times of 5.4 min (free CPT) and 6.9 min (TT 1) were monitored.

[2] = Tolerability of free CPT in mice; format: in vivo
Description: Due to its poor water solubility, free CPT is often given in a formulation containing a mixture of DMSO/ethanol/PEG-400/water at a volumetric ratio of 1:1:2:1 (24). […] We eventually identified an intraperitoneal injection of 4.5 mg/kg CPT to be a tolerable dosage for animal studies. In contrast, the MTD of TT 1 SPs in healthy athymic nude mice, identified in a dose escalation study through systemic administration, is within the range of 24-30 mg/kg (CPT equivalent) (FIG. 3D and FIG. 13). […] Four out of five mice survived for up to 37 d (9 mg/kg) and 43 d (15 mg/kg).

[3] = test system: human glioblastoma U87 MG cells; experiment: Antitumor efficacy study for systemic delivery, subcutaneous U87 MG tumor; format: in vivo, athymic nude mice; conditions: controls: free CPT 4.5 mg/kg i.p.; irinotecan 60 mg/kg i.p.
Description: A total of 2×10^6 human glioblastoma U87 MG cells were subcutaneously injected into the right shoulder of athymic nude mice (8-9 weeks old). The mice were used for the efficacy study after three to four weeks when the tumor had reached about 190-250 mm^3 in size. […]. Water insoluble free CPT was dissolved/suspended in a mixture of DMSO/ethanol/PEG-400/water (1:1:2:1). CPT (4.5 mg/kg) and irinotecan (60 mg/kg) were administered by intraperitoneal injection, while freshly prepared TT 1 solutions of various doses were administered intravenously by tail vein injection every 4 days for a total of three doses (days 1, 5, and 9). […]. Tumor volumes were measured and recorded every other day. The body weights were measured and recorded every day or every other day. The tumor volume was determined by measuring the tumor in two dimensions with calipers and using the formula “tumor volume=(length×width^2)/2”. Each animal was euthanized once the tumor volume reached the predetermined end point size of 2000 mm^3.

HT-29 cells = test system: HT-29 cells
Text: Antitumor efficacy study of SAPDs at the same dose on a HT-29 tumor model. […] When the averaged tumor size reached 75-95 mm^3, mice were randomly divided into six groups. […] The tumor volumes and body weights were monitored and recorded every two or three days. The tumor volume was estimated by measuring the length and width with calipers and using the equation “tumor volume=(length×width^2)/2”. Mice were euthanized once the tumor volume reached 1000 mm^3.

[4] = test system: U87 MG human brain cancer cells; experiment: cells; conditions: U-87 MG, 48 h
Description: (§1) The human brain cancer cell line U87 MG was a generous gift from Dr. Wirtz (ChemBE, JHU). DMEM (Invitrogen) containing 10% fetal bovine serum (FBS, Invitrogen) and 1% antibiotics (Invitrogen) was used for the culture of the U87 MG cells. Cancer cells were incubated at 37° C. in a humidified incubator (Oasis, Caron, Marietta, Ohio, USA) with an atmosphere of 5% CO2. […] U87 MG cells were seeded onto 96-well plates (5000 cells/well) and allowed to attach overnight. […] The stock solutions were then diluted with fresh medium to achieve final CPT concentrations of 0.1, 1, 10, 100, 500, 1000, 5000 and 10000 nM. After dilution, the nanotube-containing media were used to incubate cells immediately. Medium containing the same concentration of free CPT ranging from 0.1 to 10000 nM was also used to incubate the cells, with non-treated cells (solvent only) as the control group. In addition, irinotecan at the concentration of 0.1, 1, 5, 10, 50, 100 and 500 μM was employed as a second control. After 48 h incubation, the cell viability was evaluated using the SRB method according to the manufacturer's protocols (TOX-6, Sigma, St. Louis, Mo.).

[5] = test system: U87 MG human brain cancer cells; conditions: 48 h
Description: as §1

[6] = Zeta potential measurement; format: physicochemical; conditions: 1×-DPBS buffer
Description: TT solutions of 200 μM in 1×-DPBS buffer (pH=7.4) were prepared by directly mixing identical volumes of a 400 μM aqueous TT solution and 2×-DPBS buffer (pH=7.4). In some embodiments, solutions at a concentration of 2 mM in PBS buffer (pH=7.4) were prepared and aged overnight prior to zeta potential measurement. TT solutions of 200 μM in 1×-DPBS buffer (pH=5.0) were prepared by mixing identical volumes of a 400 μM aqueous TT solution and 2×-DPBS buffer (pH=5.0), which was pretreated with 6 M HCl. The zeta potential measurements were performed on a Zetasizer Nano ZS90 (Malvern Instruments Ltd., UK). The prepared solutions were loaded in capillary cells and equilibrated for 2 min prior to measurement. The average values and their standard deviations are calculated from three replicate measurements. The zeta potential of the assembled structures was obtained by measuring the electrophoretic movement of the nanostructures under the applied electric field, where the movement velocity is determined by phase analysis light scattering. Variations of the zeta potential value over time were determined by measuring the solutions at different aging time points (1, 2, 4 and 7 days) and are plotted in FIG. 10.

[7] = test system: U87 MG human glioblastoma; experiment: Antitumor efficacy study for local delivery (intratumoral TT 2 hydrogel); format: in vivo, athymic nude mice; conditions: 10 mM hydrogel, 30 μL intratumoral
Description: The hydrogel formation of TT 2 in vivo was investigated through subcutaneous injection of a TT 2 gel. […] The tumor model used in local delivery is the same U87 MG human glioblastoma line used in the systemic delivery study described above. Mice were randomly selected (n=7) and treated with TT 2 hydrogel at a fixed dose (10 mM, 30 μL) through intratumoral injection. Tumor volumes and body weights were measured and recorded every other day. The tumor volume was determined by measuring the tumor in two dimensions with calipers and using the formula “tumor volume=(length×width^2)/2”. Each animal was euthanized once the tumor […] reached the predetermined end point size of 2000 mm^3.
The antitumor efficacy of TT 2 hydrogel was then evaluated in a subcutaneous U87 MG xenograft model via intratumoral injection of a 10 mM TT 2 SP hydrogel (30 μL). All seven mice studied experienced tumor regression with a minimum mean tumor volume of 36 mm^3 at day 25 and survived for more than 45 days (FIG. 3K).

[8] = Gel release of TT 2 nanotube hydrogel; format: physicochemical; conditions: 10 mM in 1×-DPBS, 37° C., over 31 days
Description: TT 2 was dissolved in water and hydrogel formation triggered by the addition of 10×-DPBS to give a final TT 2 concentration of 10 mM in 1×-DPBS. 200 μL of the hydrogel was placed at the bottom of centrifuge tube and allowed to re-gel overnight. Three replicate experiments were prepared together and incubated at 37° C. Fresh 1×-DPBS (300 μL) was layered on top of the hydrogel and was refreshed at predetermined time points: 1, 2, 4, 7, 10, 13, 16, 19, 22, 25, 28, and 31 days. The samples were frozen with liquid nitrogen and stored at −30° C. until analysis. The amount of TT 2 in the top DPBS layer was determined by analytical RP-HPLC using the conditions described in the previous paragraph. The cumulative release of TT 2 from its hydrogels was calculated and plotted as a percentage of the total amount of hydrogel. The conjugate was seen to be released almost linearly from the hydrogel with ˜10% of the prodrugs being released over the 31-day period.

[9] = TEM / cryo-TEM imaging of self-assembled nanostructures (dimensions); format: physicochemical; conditions: self-assembled nanotubes in water, 200 μM, n>40
Description: About 200 μM stock solutions of corresponding TTs in water were prepared by dissolution of the lyophilized powders. After aging overnight, TEM samples were prepared by depositing 7 μL of the appropriate solution onto a carbon-coated copper grid (Electron Microscopy Services, Hatfield, Pa., USA), wicking away the excess solution with a small piece of filter paper. Next, 7 μL of a 2 wt % uranyl acetate aqueous solution was deposited on the surface for 30 seconds, wicking away the excess solution with filter paper. The grids were then air-dried overnight at room temperature prior to imaging. Bright-field TEM imaging was performed using an FEI Tecnai 12 TWIN Transmission Electron Microscope operated at an acceleration voltage of 100 kV. All TEM images were acquired by a SIS Megaview III wide-angle CCD camera or 16 bit 2K×2K FEI Eagle bottom mount camera.
Cryo-TEM imaging was performed using higher sample concentrations of 800 μM (compared with 200 μM for conventional TEM imaging). Extended imaging times can result in damage to the vitreous ice film caused by the electron beam and so higher concentrations can allow a more rapid visualization that reduces this likelihood. About 6 μL of the appropriate solution was dropped onto a lacey carbon-film-supported TEM copper grid (Electron Microscopy Services, Hatfield, Pa., USA). All the TEM grids used for cryo-TEM imaging were pretreated with plasma air to render the lacey carbon film hydrophilic. A thin film of the sample solution was produced using a Vitrobot with a controlled humidity chamber (FEI). After loading of the sample solution, the lacey carbon grid was blotted using preset parameters and plunged instantly into a liquid ethane reservoir precooled by liquid nitrogen. The vitrified samples were then transferred to a cryo-holder and cryo-transfer stage that was cooled by liquid nitrogen. To prevent sublimation of vitreous water, the cryo-holder temperature was maintained below −170° C. during the imaging process. All images were recorded by a Tecnai 12 microscope with a cryo-holder, and the images were acquired by a 16 bit 2K×2K FEI Eagle bottom mount camera.
Self-Assembly of SAPDs from TT1. To study the self-assembly behavior of the SAPDs, we directly dissolved the lyophilized powders in deionized water at a concentration of 2 mM and neutral pH.

[10] = in vivo; cited from earlier work

Compound	median survival [3] [days]	IC50 [4] [nM]	ζ-Potential ([6]; pH 5.0, 200 μM) [mV]	ζ-Potential ([6]; pH 7.4, 200 μM) [mV]	Diameters measured by conventional TEM [9] [nm]	ζ-potential at pH 7.4 versus pH 5.0 [6]	other results
CC[C@@]1(O)C(=O)OCc2c1cc1n(c2=O)Cc2cc3ccccc3nc2-1 [CPT, Camptothecin, reference compound]	17	62					concentration at 1 h ([1]; read-out: drug concentration in plasma): 37 ng/g; concentration at 1 h ([1]; read-out: drug concentration in tumor): 92 ng/g; outcome of intravenous administration ([2]; 9 mg/kg i.v., DMSO/ethanol/PEG-400/water formulation): immediate death; tolerable dosage ([2]; intraperitoneal injection): 4.5 mg/kg; MTD ([2]; mouse, in vivo, intraperitoneal): ~5 mg/kg; treatment outcome (deaths) (HT-29 cells; free CPT 9 mg/kg i.p., n=5): death of all five mice after the second dose
CC[C@]1(OC(=O)OCCSSC[C@@H](NC(C)=O)C(=O)N[C@@H](CCCCNC(=O)[C@@H](CSSCCOC(=O)O[C@]2(CC)C(=O)OCc3c2cc2n(c3=O)Cc3cc4ccccc4nc3-2)NC(C)=O)C(=O)N[C@@H](CCCCN)C(=O)N[C@@H](CCCCN)C(N)=O)C(=O)OCc2c1cc1n(c2=O)Cc2cc3ccccc3nc2-1 [TT 2]			31.8	22.1	8.1 ± 0.6		IC50 [5]: 123 nM; mice with complete tumor regression [7]: Four out of seven; survival to end point of tumor-free mice [7]: around 140 d; minimum mean tumor volume ([7]; day 25, n=7): 36 mm^3; survival of all treated mice ([7]; n=7): more than 45 days; cumulative release of TT 2 from hydrogel [8]: ~10%
CC[C@]1(OC(=O)OCCSSC[C@@H](NC(C)=O)C(=O)N[C@@H](CCCCNC(=O)[C@@H](CSSCCOC(=O)O[C@]2(CC)C(=O)OCc3c2cc2n(c3=O)Cc3cc4ccccc4nc3-2)NC(C)=O)C(=O)N[C@@H](CCC(=O)O)C(=O)N[C@@H](CCC(=O)O)C(N)=O)C(=O)OCc2c1cc1n(c2=O)Cc2cc3ccccc3nc2-1 [TT 3]					8.4 ± 0.9	more negative ζ-potentials at pH 7.4 than 5.0	
CC[C@]1(OC(=O)OCCSSC[C@@H](NC(C)=O)C(=O)N[C@@H](CCCCNC(=O)[C@@H](CSSCCOC(=O)O[C@]2(CC)C(=O)OCc3c2cc2n(c3=O)Cc3cc4ccccc4nc3-2)NC(C)=O)C(=O)N[C@@H](CCCCN)C(=O)N[C@@H](CCC(=O)O)C(N)=O)C(=O)OCc2c1cc1n(c2=O)Cc2cc3ccccc3nc2-1 [TT 4]			−2.3	−18.8	8.3 ± 0.9		
CC[C@]1(OC(=O)OCCSSC[C@@H](NC(C)=O)C(=O)N[C@@H](CCCCNC(=O)[C@@H](CSSCCOC(=O)O[C@]2(CC)C(=O)OCc3c2cc2n(c3=O)Cc3cc4ccccc4nc3-2)NC(C)=O)C(=O)N[C@H](CCCCNC(=O)CN2CCN(CC(=O)O)CCN(CC(=O)O)CCN(CC(=O)O)CC2)C(N)=O)C(=O)OCc2c1cc1n(c2=O)Cc2cc3ccccc3nc2-1 [TT 5]					8.4 ± 0.9	more negative ζ-potentials at pH 7.4 than 5.0	
CCc1c2c(nc3ccc(OC(=O)N4CCC(N5CCCCC5)CC4)cc13)-c1cc3c(c(=O)n1C2)COC(=O)[C@]3(O)CC [irinotecan, reference compound]	27	6500					reported MTD [10]: 100 mg/kg; median survival (HT-29 cells; SAPDs 10 mg/kg i.v. days 1, 5, 9, 13, irinotecan 100 mg/kg i.p. days 1, 8, 15): 51 days
